{
  "source": "paper PMC9134315",
  "about": "“Systemic Administration of a Brain Permeable Cdk5 Inhibitor Alters Neurobehavior” (Frontiers in Pharmacology, 2022)",
  "key": {"C57BL/6 mice": {"test_system": "C57BL/6 mice", "assay": "Open-field test", "assay_type": "in vivo, mouse", "conditions": "50 mg/kg", "description": "The OFT was performed as described ([Chakraborti et al., 2021]). With the adaptation duration of the test being 1 h for each mouse, briefly, the mice were placed in a square box (40 cm × 40 cm) and allowed to freely explore. The center square portion of the maze was defined as the “open area.” Video tracking using EthoVision 16 software was used to track animal movement throughout the box and stereotypic and locomotive behaviors such as hopping, sniffing, and rearing. Total distance traveled, entries into the center of the maze, and duration in the center were tracked and analyzed in EthoVision.\nTo establish a functional effect of pharmacological Cdk5 inhibition in the brain, we tested mouse performance in two behavioral paradigms previously shown to be altered in Cdk5 knockout mice: the open-field maze and the tail suspension test ([Plattner et al., 2015]). The open-field maze was used to measure locomotion and anxiety-like behavior ([Cacace et al., 2011]; [Seibenhener and Wooten, 2015]). Mice were injected with either vehicle or 50 mg/kg of 25–106 and allowed to freely explore an open-field maze for 1 h with locomotor activity being tracked (Figure 7)."}, "Cdk5 [1]": {"molecular_target": "T1, Cdk5 (Mus musculus, UniProt P49615)", "T1 construct": "from tissue; host or cells: striatum of wild-type C57BL/6 mice (acute slices, or lysates after I.V. dosing)", "T1 sequence (P49615 whole entry)": "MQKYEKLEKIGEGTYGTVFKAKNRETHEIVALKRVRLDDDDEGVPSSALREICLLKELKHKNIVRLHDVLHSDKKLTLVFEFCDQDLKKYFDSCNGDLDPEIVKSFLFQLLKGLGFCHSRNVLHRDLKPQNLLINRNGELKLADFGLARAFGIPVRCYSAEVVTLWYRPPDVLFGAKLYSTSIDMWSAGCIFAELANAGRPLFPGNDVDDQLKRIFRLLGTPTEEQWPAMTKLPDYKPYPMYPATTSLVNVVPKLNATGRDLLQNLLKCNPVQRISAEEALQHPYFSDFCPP", "T1 sequence (P61809 2-307 partner limits assumed)": "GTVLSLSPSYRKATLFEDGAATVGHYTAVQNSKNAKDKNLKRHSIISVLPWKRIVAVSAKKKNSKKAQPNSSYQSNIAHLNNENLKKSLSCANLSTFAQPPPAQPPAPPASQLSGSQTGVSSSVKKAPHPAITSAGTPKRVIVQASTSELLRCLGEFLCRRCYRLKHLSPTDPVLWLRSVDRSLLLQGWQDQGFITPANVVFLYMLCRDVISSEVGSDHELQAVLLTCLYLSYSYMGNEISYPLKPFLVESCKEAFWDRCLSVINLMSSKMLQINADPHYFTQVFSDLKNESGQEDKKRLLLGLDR", "assay": "In vivo Cdk5 inhibition after I.V. injection, immunoblot of striatal phospho-Ser549 synapsin I", "conditions": "for phospho-Ser549 synapsin I levels in the striatum: 50 mg/kg I.V.", "description": "The wild-type group housed male C57BL/6 mice 10–12 weeks of age were used for all in vivo, ex vivo, and behavioral studies. This age range was selected to be consistent with previous studies of conditional Cdk5 knockout mice ([Plattner et al., 2015]). 25–106 was administered in a 20-fold dose range intravenously (I.V.) at 10, 50, 100, and 200 mg/kg for pharmacokinetic studies. This delivery mode was used as I.V. injections to avoid first-pass drug metabolism observed using other injection methods ([Pond and Tozer, 1984]). […] All animal experiments were performed under approved protocols by the University of Alabama at Birmingham (UAB) Institutional Animal Care and Use Committees and in accordance with the guidelines of the Animal Welfare Act and the Guide for the Care and Use of Laboratory Animals.\n(§1) Immunoblotting was performed as previously described ([Umfress et al., 2021]). Mouse brains were rapidly dissected in an ice-cold solution of 50 mM NaF/PBS. The regions of interest were further dissected out and rapidly snap-frozen in dry ice. The frozen tissue was homogenized in boiling lysis buffer (1% SDS, 50 mM NaF) and sonicated with several three to four pulses at 40 dB. The samples were subsequently denatured at 90°C for 5 min. Protein concentration was determined by the BCA assay, and homogenates were diluted in 4x sample buffer, separated by SDS-PAGE, and transferred to 0.45-µm nitrocellulose membranes, blocked with 5% milk solution (1 h), and probed with primary antibodies (overnight). The following antibodies were used in the study: phospho-Ser549 synapsin I (Phosphosolutions), total synapsin I (Phosphosolutions), actin (Invitrogen), phospho-Ser1116 (in-house) ([Plattner et al., 2014]), and total NR2B (Phosphosolutions), phospho-Thr75, and total DARPP-32 (Cell Signaling Technology). Visualization was performed using the Licor CLX membrane scanner and Licor secondary antibodies.\nEach of the four compounds tested in brain slices was further screened for their ability to penetrate the blood–brain barrier (BBB) and inhibit Cdk5-dependent activity in vivo. For these studies, cohorts of mice were treated with each compound via I.V. injection (50 mg/kg), and brain striatal lysates from various time points were subjected to quantitative immunoblot analysis for phosho-Ser549 Synapsin I levels. Three compounds, 20–107, 20–132, and 20–143, had no effect on Cdk5 activity compared to that of vehicle alone (data not shown). […] Moreover, this effect persisted even 24 h after dosing."}, "Cdk5 [2]": {"molecular_target": "T1, Cdk5", "assay": "Ex vivo acute striatal brain slice pharmacology, immunoblot of phospho-Thr75 DARPP-32 and phospho-Ser1116 NR2B", "assay_type": "cell-based", "conditions": "acute striatal slices, 1 h treatment, 0-10 µM; read-out: IC50, Cdk5-dependent phosphorylation of DARPP-32 and NR2B", "description": "Brain slice pharmacology was performed as described ([Nishi et al., 2000]). Briefly, the mice were decapitated, and the brains were rapidly dissected and submerged in ice-cold normal Kreb’s solution (124 mM NaCl, 4 mM KCl, 26 mM NaHCO3, 1.25 mM KH2PO4, 1.5 mM MgSO4, 10 mM D-glucose, and 1.5 mM CaCl2). The brains were subsequently sectioned into normal Kreb’s solution at 350 µ thickness. The brain slices were transferred to a 30°C solution of normal Kreb’s containing 10 µM deaminase for a 1-h recovery period. The sections were then incubated in normal Kreb’s solution with and without the indicated compounds across the dose and time ranges indicated. The sections were rapidly snap-frozen in dry ice to terminate treatment regimes.\nas §1\nIn order to assess the functional inhibition of Cdk5 in intact brain tissue by the four compounds summarized in Figure 1, acutely prepared striatal slices were treated in a dose-dependent manner (0, 0.25, 0.5, 1, 5, and 10 µM) with each inhibitor for 1 h, and Cdk5 activity was assessed via immunoblotting the phosphorylation of established Cdk5 sites, phospho-Thr75 DARPP-32 and phospho-Ser1116 NR2B ([Bibb et al., 1999]; [Plattner et al., 2014])."}, "Cdk2/CyclinE": {"molecular_target": "Cdk2/CyclinE (Homo sapiens, UniProt P24941)", "assay": "In vitro dose-response kinase inhibition assay", "assay_type": "biochemical", "description": "(§2) In vitro phosphorylation reactions were conducted as dose-response kinase inhibition assays with three highly homologous CDKs, namely, Cdk2/CyclinE (1.5 nM), CDK5/p25 (0.35 nM), and Cdk9/CyclinT1 (9 nM). Briefly, the abovementioned kinases were incubated with ATP (30 μM), the corresponding substrate (20 μM), and an increasing concentration of 25–106 (0–5 μM) for 30 min."}, "CDK5/p25": {"molecular_target": "CDK5/p25 (Homo sapiens, UniProt Q00535)", "sequence (Q00535 whole entry, species assumed)": "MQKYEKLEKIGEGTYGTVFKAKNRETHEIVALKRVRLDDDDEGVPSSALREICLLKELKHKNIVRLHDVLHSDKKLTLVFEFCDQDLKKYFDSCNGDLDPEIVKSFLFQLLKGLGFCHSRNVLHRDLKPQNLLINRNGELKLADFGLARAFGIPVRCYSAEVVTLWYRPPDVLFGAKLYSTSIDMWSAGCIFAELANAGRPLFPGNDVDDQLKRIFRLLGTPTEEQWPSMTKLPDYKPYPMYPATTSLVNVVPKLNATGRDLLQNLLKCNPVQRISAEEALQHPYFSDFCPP", "sequence (Q15078 99-307 partner limits assumed, species assumed)": "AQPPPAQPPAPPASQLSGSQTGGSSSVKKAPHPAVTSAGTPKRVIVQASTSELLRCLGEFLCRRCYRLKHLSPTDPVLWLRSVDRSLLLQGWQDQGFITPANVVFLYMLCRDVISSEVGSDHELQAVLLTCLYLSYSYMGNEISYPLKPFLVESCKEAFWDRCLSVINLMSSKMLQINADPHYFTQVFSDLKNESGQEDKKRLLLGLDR", "assay": "In vitro dose-response kinase inhibition assay", "assay_type": "biochemical", "description": "as §2"}, "Cdk9/CyclinT1": {"molecular_target": "Cdk9/CyclinT1 (Homo sapiens, UniProt P50750)", "sequence (P50750 whole entry, species assumed)": "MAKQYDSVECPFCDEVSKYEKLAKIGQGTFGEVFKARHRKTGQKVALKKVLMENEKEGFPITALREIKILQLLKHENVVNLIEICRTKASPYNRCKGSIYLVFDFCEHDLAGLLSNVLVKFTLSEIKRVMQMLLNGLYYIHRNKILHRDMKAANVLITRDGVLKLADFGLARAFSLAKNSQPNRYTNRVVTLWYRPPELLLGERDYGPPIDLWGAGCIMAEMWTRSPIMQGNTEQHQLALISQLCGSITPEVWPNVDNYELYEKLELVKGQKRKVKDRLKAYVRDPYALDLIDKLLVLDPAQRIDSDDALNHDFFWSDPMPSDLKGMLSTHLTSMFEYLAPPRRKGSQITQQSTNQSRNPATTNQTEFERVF", "sequence (O60563 whole entry partner, species assumed)": "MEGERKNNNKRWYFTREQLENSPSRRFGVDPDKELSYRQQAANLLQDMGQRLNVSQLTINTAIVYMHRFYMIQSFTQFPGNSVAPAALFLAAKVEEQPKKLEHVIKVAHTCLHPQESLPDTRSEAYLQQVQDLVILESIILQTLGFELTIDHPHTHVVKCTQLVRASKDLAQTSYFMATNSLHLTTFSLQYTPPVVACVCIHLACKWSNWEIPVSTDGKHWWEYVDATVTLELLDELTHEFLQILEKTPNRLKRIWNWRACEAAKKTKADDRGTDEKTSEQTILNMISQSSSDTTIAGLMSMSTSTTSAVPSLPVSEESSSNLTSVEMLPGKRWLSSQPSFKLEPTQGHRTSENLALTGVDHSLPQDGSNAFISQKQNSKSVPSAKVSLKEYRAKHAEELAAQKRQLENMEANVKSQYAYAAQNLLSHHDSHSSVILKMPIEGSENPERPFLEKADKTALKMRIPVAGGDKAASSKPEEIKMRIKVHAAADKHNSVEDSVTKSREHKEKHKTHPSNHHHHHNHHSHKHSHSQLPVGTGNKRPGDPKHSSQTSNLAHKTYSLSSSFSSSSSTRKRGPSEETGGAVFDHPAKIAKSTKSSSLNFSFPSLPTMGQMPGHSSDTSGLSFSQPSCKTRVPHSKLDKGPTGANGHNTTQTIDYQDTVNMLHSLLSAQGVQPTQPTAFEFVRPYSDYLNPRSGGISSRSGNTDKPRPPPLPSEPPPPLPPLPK", "assay": "In vitro dose-response kinase inhibition assay", "assay_type": "biochemical", "conditions": "30 min, ATP 30 μM", "description": "as §2"}},
  "data": [
    {"compound": "COc1cc(CC(=O)Nc2cc(C3CCC3)[nH]n2)cc(OC)c1OC", "note": "[25–106, N-(5-cyclobutyl-1H-pyrazol-3-yl)-2-(3,4,5-trimethoxyphenyl)acetamide]", "values": [
      {"measurement": "duration of time spent in the open portion of the maze vs. vehicle", "setting": "C57BL/6 mice; 1 h after injection, 1 h test", "value": "longer duration of time"},
      {"measurement": "entries into the open portion of the maze vs. vehicle", "setting": "C57BL/6 mice; 1 h after injection, 1 h test", "value": "increased number of entries"},
      {"measurement": "hopping bouts vs. vehicle", "setting": "C57BL/6 mice; open-field testing", "value": "increased hopping bouts"},
      {"measurement": "rearing behaviors vs. vehicle", "setting": "C57BL/6 mice; open-field testing", "value": "increased rearing behaviors"},
      {"measurement": "time sniffing vs. vehicle", "setting": "C57BL/6 mice; open-field testing", "value": "increased time sniffing"},
      {"measurement": "phospho-Ser549 synapsin I levels in the striatum", "setting": "Cdk5 [1]; 2 h after injection", "value": "significantly reduced"},
      {"measurement": "phospho-Ser549 synapsin I levels in the striatum", "setting": "Cdk5 [1]; 24 h after dosing", "value": "persisted"},
      {"measurement": "Cdk5-dependent phosphorylation in brain", "setting": "Cdk5 [1]; 1 h post injection", "value": "remained unchanged"},
      {"measurement": "striatal phospho-Ser549 synapsin I levels, dose-response", "setting": "Cdk5 [1]; 24 h post injection, 10, 50, 100 and 200 mg/kg I.V., approximately equal efficacy", "value": "significant reduction"},
      {"measurement": "IC50", "setting": "Cdk5 [2]", "value": "500 to 1000", "unit": "nM"},
      {"measurement": "IC50", "setting": "Cdk2/CyclinE; 30 min, ATP 30 μM, read-out: IC50 CDK2/Cyclin E", "value": 149, "unit": "nM"},
      {"measurement": "Ki", "setting": "Cdk2/CyclinE; 30 min, ATP 30 μM, read-out: Ki CDK2/Cyclin E", "value": 89, "unit": "nM"},
      {"measurement": "selectivity for Cdk2 than Cdk9", "setting": "Cdk2/CyclinE; in vitro kinase assay", "value": "greater than 30 fold"},
      {"measurement": "IC50", "setting": "CDK5/p25; 30 min, ATP 30 μM, read-out: IC50 CDK5/P35", "value": 178, "unit": "nM"},
      {"measurement": "Ki", "setting": "CDK5/p25; 30 min, ATP 30 μM, read-out: Ki CDK5/P35", "value": 107, "unit": "nM"},
      {"measurement": "selectivity for Cdk5 than Cdk9", "setting": "CDK5/p25; in vitro kinase assay", "value": "greater than 30 fold"},
      {"measurement": "IC50", "setting": "Cdk9/CyclinT1; read-out: IC50 CDK9/Cyclin T1", "value": 5710, "unit": "nM"},
      {"measurement": "Ki", "setting": "Cdk9/CyclinT1; read-out: Ki CDK9/Cyclin T1", "value": 3430, "unit": "nM"}
    ]}
  ]
}
